Measurements as given in paper PMC10004634 (PLOS ONE, 2023).

How the values were obtained:
Test in all cases: biochemical
Parameters in all cases: KINOMEscan scanMAX competition binding, DNA-tagged kinases, qPCR read-out, percent control at 300 nM
NEK5 = NEK5 (Homo sapiens, UniProt Q6P3R8); conditions: read-out: Percent control / Acalabrutinib
PIK3CA(H1047Y) = PIK3CA(H1047Y) (Homo sapiens, UniProt P42336, H1047Y); conditions: read-out: Percent control / Acalabrutinib
PIK3CG = PIK3CG (Homo sapiens, UniProt P48736); conditions: read-out: Percent control / Acalabrutinib
[1] = biological target: T1, ABL1(Q252H)-nonphosphorylated (Homo sapiens, UniProt P00519, Q252H); conditions: read-out: Percent control / Acalabrutinib
T1 construct: nonphosphorylated

EPHA1 = EPHA1 (Homo sapiens, UniProt P21709); conditions: read-out: Percent control / Acalabrutinib
SIK2 = SIK2 (Homo sapiens, UniProt Q9H0K1); conditions: read-out: Percent control / Acalabrutinib
JNK3 = biological target: T2, JNK3 (Homo sapiens, UniProt P53779); conditions: read-out: Percent control / Acalabrutinib
T2 construct: gene MAPK10

NDR2 = biological target: T3, NDR2 (Homo sapiens, UniProt Q9Y2H1); conditions: read-out: Percent control / Acalabrutinib
T3 construct: gene STK38L

EIF2AK1 = EIF2AK1 (Homo sapiens, UniProt Q9BQI3); conditions: read-out: Percent control / Acalabrutinib
MYO3B = MYO3B (Homo sapiens, UniProt Q8WXR4); conditions: read-out: Percent control / Ibrutinib
DAPK3 = DAPK3 (Homo sapiens, UniProt O43293); conditions: read-out: Percent control / Ibrutinib
MARK3 = MARK3 (Homo sapiens, UniProt P27448); conditions: read-out: Percent control / Ibrutinib
PRKG1 = PRKG1 (Homo sapiens, UniProt Q13976); conditions: read-out: Percent control / Tirabrutinib
AKT1 = AKT1 (Homo sapiens, UniProt P31749); conditions: read-out: Percent control / Zanubrutinib
S6K1 = biological target: T4, S6K1 (Homo sapiens, UniProt P23443); conditions: read-out: Percent control / Zanubrutinib
T4 construct: gene RPS6KB1

EPHA5 = EPHA5 (Homo sapiens, UniProt P54756); conditions: read-out: Percent control / Zanubrutinib
NEK6 = NEK6 (Homo sapiens, UniProt Q9HC98); conditions: read-out: Percent control / Zanubrutinib
LRRK2(G2019S) = LRRK2(G2019S) (Homo sapiens, UniProt Q5S007, G2019S); conditions: read-out: Percent control / Zanubrutinib
PAK2 = PAK2 (Homo sapiens, UniProt Q13177); conditions: read-out: Percent control / Zanubrutinib
STK39 = STK39 (Homo sapiens, UniProt Q9UEW8); conditions: read-out: Percent control / Zanubrutinib
CDK4-cyclinD1 = biological target: T5, CDK4-cyclinD1 (Homo sapiens, UniProt P11802); conditions: read-out: Percent control / Zanubrutinib
T5 construct: cyclinD1

IKK-alpha = biological target: T6, IKK-alpha (Homo sapiens, UniProt O15111); conditions: read-out: Percent control / Zanubrutinib
T6 construct: gene CHUK

SIK = biological target: T7, SIK (Homo sapiens, UniProt P57059); conditions: read-out: Percent control / Zanubrutinib
T7 construct: gene SIK1

Chain of EPHA1 (P21709 whole entry): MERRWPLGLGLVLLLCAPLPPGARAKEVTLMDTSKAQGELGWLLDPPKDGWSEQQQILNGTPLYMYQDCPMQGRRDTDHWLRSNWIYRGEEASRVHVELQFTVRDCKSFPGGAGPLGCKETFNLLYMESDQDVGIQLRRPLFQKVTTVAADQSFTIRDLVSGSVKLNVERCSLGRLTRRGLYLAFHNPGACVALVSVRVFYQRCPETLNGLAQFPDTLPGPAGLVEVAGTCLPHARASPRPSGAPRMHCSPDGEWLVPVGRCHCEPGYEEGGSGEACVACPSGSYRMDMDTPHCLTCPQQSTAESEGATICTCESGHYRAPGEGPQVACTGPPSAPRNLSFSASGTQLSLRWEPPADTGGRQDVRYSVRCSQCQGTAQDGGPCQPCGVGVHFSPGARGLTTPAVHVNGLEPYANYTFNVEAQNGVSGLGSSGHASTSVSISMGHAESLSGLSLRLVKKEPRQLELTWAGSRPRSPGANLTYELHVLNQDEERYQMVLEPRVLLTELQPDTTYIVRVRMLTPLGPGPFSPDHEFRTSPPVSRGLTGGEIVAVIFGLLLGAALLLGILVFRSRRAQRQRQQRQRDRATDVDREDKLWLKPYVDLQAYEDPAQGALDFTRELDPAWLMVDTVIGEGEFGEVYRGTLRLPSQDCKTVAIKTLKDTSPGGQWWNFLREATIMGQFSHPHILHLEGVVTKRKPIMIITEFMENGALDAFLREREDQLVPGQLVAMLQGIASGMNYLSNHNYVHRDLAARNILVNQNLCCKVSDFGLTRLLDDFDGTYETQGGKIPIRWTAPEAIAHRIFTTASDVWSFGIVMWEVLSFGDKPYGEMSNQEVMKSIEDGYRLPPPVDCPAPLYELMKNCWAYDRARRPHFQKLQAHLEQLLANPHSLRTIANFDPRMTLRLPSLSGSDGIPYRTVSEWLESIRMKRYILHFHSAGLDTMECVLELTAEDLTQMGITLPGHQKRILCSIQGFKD
T5 sequence (P11802 whole entry): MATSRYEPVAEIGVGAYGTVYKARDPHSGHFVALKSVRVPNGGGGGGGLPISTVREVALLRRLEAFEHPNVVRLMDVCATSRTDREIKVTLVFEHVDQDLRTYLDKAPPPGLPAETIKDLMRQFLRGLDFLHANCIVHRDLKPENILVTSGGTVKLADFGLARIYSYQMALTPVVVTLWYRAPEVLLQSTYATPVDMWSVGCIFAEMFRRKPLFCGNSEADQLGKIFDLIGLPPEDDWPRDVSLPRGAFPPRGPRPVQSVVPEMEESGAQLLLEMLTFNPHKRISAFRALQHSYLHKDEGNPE
T5 sequence (P24385 whole entry partner): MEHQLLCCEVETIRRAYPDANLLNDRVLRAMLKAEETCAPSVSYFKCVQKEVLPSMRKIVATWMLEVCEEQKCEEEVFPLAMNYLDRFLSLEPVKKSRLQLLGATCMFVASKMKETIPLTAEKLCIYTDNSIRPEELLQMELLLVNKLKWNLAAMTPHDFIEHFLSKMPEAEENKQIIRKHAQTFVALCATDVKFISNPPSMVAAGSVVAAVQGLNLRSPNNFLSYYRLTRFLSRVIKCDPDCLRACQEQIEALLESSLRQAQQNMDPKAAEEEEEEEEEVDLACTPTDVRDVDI
Chain of EPHA5 (P54756 whole entry): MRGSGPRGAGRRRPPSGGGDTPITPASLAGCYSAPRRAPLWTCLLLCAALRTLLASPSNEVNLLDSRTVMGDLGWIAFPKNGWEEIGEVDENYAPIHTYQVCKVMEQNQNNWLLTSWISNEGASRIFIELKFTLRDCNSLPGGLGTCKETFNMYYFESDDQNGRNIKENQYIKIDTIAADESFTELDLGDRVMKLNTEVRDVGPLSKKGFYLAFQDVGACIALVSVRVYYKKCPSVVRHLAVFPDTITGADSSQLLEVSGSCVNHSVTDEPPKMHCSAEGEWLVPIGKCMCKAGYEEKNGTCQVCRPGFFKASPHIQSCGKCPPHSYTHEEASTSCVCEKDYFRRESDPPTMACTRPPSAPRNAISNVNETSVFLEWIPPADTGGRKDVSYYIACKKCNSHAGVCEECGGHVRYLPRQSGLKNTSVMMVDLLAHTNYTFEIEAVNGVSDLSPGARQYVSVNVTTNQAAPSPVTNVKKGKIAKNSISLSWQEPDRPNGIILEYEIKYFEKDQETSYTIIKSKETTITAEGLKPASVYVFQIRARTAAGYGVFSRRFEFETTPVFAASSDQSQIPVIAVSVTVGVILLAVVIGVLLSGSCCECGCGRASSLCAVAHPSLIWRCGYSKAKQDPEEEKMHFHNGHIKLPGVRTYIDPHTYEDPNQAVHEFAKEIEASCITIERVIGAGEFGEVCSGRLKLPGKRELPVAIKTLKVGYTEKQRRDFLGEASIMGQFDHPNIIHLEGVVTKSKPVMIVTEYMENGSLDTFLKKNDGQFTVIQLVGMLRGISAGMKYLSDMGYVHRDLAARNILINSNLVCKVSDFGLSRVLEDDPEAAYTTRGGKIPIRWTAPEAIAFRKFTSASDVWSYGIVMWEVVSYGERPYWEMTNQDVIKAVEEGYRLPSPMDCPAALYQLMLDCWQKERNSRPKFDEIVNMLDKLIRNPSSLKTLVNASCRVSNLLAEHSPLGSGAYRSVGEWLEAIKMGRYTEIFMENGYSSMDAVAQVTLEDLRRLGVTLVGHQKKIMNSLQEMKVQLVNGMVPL
Chain of EIF2AK1 (Q9BQI3 whole entry): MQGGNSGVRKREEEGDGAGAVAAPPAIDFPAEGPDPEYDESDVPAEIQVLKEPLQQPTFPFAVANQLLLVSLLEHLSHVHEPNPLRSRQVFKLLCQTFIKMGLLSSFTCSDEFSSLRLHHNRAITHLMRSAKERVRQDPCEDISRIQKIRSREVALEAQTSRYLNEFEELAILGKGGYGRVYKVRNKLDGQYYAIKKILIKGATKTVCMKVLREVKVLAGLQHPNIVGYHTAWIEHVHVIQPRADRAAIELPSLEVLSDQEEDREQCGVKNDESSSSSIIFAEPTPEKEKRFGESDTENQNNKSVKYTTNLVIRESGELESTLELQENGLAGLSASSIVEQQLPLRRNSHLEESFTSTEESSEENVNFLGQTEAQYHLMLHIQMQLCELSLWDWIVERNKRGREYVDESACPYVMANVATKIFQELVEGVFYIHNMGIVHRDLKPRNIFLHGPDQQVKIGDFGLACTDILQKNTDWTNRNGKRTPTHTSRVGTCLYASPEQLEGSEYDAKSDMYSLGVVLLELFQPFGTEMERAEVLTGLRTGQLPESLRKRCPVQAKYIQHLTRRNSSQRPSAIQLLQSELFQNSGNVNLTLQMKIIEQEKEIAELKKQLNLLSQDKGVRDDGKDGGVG
T2 sequence (P53779 whole entry): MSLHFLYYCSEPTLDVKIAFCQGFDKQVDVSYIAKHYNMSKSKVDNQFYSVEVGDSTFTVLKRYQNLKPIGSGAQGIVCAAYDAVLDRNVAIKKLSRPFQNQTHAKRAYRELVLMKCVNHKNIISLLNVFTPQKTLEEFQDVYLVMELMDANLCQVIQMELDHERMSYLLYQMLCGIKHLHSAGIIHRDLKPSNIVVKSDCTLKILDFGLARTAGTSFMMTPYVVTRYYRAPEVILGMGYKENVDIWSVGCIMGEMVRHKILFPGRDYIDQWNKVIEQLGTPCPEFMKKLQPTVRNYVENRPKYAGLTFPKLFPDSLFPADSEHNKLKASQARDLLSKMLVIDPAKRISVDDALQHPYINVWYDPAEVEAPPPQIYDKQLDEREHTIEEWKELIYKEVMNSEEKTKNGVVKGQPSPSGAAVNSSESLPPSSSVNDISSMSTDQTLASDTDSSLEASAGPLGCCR
Chain of NEK5 (Q6P3R8 whole entry): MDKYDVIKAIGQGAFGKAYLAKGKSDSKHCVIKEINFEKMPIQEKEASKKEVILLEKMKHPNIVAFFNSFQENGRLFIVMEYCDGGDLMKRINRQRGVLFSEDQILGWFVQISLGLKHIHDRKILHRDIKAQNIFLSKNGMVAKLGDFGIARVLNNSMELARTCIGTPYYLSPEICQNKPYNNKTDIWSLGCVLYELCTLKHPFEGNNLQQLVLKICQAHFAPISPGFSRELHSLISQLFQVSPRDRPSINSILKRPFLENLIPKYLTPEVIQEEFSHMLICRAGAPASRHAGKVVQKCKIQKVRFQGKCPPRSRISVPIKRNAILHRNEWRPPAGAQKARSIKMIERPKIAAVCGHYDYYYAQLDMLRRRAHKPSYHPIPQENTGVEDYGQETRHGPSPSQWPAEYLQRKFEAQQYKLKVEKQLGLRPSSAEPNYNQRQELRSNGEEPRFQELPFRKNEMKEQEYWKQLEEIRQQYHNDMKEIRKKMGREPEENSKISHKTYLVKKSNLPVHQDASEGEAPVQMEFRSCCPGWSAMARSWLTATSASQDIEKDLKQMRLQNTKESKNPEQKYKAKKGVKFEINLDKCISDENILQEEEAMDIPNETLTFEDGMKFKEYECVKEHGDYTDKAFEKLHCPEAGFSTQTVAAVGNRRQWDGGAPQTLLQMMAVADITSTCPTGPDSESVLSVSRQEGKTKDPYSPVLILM
T4 sequence (P23443 whole entry): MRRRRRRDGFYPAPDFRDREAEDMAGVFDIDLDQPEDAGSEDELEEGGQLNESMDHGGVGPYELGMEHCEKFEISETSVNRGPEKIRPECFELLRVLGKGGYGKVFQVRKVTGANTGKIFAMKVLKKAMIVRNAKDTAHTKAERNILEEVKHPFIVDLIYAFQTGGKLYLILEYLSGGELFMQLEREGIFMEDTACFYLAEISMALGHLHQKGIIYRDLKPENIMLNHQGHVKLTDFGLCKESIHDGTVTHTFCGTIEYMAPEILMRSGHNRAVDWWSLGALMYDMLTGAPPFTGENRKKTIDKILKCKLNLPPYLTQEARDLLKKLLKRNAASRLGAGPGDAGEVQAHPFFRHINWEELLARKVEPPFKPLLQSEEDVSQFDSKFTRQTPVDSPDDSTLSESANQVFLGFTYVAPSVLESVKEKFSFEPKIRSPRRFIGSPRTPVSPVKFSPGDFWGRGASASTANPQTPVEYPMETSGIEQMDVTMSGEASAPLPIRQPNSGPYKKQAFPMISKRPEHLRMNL

CC#CC(=O)N1CCC[C@H]1c1nc(-c2ccc(C(=O)Nc3ccccn3)cc2)c2c(N)nccn12 [Acalabrutinib]
remaining binding at 0.3 µM (NEK5): 96%
remaining binding at 0.3 µM (PIK3CA(H1047Y)): 70%
remaining binding at 0.3 µM (PIK3CG): 99%
remaining binding at 0.3 µM [1]: 84%
remaining binding at 0.3 µM (EPHA1): 85%
remaining binding at 0.3 µM (SIK2): 90%
remaining binding at 0.3 µM (JNK3): 94%
remaining binding at 0.3 µM (NDR2): 99%
remaining binding at 0.3 µM (EIF2AK1): 85%

C=CC(=O)N1CCC[C@@H](n2nc(-c3ccc(Oc4ccccc4)cc3)c3c(N)ncnc32)C1 [Ibrutinib]
remaining binding at 0.3 µM (MYO3B): 80%
remaining binding at 0.3 µM (DAPK3): 92%
remaining binding at 0.3 µM (MARK3): 99%

CC#CC(=O)N1CC[C@@H](n2c(=O)n(-c3ccc(Oc4ccccc4)cc3)c3c(N)ncnc32)C1 [Tirabrutinib]
remaining binding at 0.3 µM (PRKG1): 90%

C=CC(=O)N1CCC([C@@H]2CCNc3c(C(N)=O)c(-c4ccc(Oc5ccccc5)cc4)nn32)CC1 [Zanubrutinib]
remaining binding at 0.3 µM (AKT1): 100%
remaining binding at 0.3 µM (S6K1): 88%
remaining binding at 0.3 µM (EPHA5): 97%
remaining binding at 0.3 µM (NEK6): 88%
remaining binding at 0.3 µM (LRRK2(G2019S)): 47%
remaining binding at 0.3 µM (PAK2): 83%
remaining binding at 0.3 µM (STK39): 96%
remaining binding at 0.3 µM (CDK4-cyclinD1): 80%
remaining binding at 0.3 µM (IKK-alpha): 84%
remaining binding at 0.3 µM (SIK): 100%
